Measured values reported in article PMC11920416 (Nature Communications, 2025).

Target: T1, porcine ficolin 2 (FCN2) (Sus scrofa, UniProt Q29041)
T1 sequence (Q29041 27-323): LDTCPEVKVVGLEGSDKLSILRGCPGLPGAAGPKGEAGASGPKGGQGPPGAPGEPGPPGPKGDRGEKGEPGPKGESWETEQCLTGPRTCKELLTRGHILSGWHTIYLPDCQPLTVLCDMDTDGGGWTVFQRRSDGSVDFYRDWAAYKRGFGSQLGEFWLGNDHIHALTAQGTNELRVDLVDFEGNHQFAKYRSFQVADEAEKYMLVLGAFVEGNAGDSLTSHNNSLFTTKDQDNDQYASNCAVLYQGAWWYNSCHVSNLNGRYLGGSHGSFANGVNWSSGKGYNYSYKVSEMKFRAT
Type: biochemical
Settings: 60% (v/v) pig serum, 37 °C, 20 min; PMOXA-coated NPs; S2 site, competitive

- IC50: 67 mM
Structure (SMILES): CC(=O)N[C@H]1C(O)O[C@H](CO)[C@@H](O)[C@@H]1O (stereo partly shown) [GlcNAc]
